Here are results for 23 compounds from patent publication US8778871B2 (Takeda Pharmaceutical Company Limited, priority 2004, dated 2014).

For test [1], the target named is T1, hOT7T175 (Homo sapiens, UniProt Q969F8, L364H).
T1 construct: expressed in transfected cells
In kind it is cell-based. The settings on record: hOT7T175/CHO, FLIPR, evaluation for 40 seconds after initiation of the reaction.
Description: The intracellular Ca ion level-increasing activity was measured using FLIPR as in TEST EXAMPLE 2.

Test [2] has as its target T1, hOT7T175. Description: Intracellular Ca ion level-increasing activity using FLIPR (180 seconds; specific activity to Metastin (1-54)). In kind it is cell-based. The settings on record: hOT7T175/CHO, relative to Metastin (1-54) = 1.

Non-standard residues stand in square brackets, D forms with d. Residues, ends and D or L forms follow the SMILES beside them. No end group written: not given here. *: point of attachment. Propanoyl(3-indol-3-yl) = O=C(CCc1c[nH]c2ccccc12)*; 2Nal = N[C@@H](Cc1ccc2ccccc2c1)C(=O)O; Arg(Me) = CNC(=N)NCCC[C@H](N)C(=O)O; Cha = N[C@@H](CC1CCCCC1)C(=O)O; X4 = NC(=S)[C@H](Cc1ccccc1)N*; Abu = CC[C@H](N)C(=O)O; azaGly = NNC(=O)O

T1 sequence (Q969F8 whole entry L364H): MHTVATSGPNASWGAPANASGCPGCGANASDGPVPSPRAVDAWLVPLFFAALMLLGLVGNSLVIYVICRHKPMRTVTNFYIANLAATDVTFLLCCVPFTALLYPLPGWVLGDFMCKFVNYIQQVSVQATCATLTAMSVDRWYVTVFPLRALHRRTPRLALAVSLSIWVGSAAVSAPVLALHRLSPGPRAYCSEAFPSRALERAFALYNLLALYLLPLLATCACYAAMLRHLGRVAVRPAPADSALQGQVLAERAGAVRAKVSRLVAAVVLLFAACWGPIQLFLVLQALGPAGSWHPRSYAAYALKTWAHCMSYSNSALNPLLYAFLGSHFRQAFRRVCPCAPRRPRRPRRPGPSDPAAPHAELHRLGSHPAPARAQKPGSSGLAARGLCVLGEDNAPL

On to `CC(C)C[C@H](NC(=O)CNC(=O)[C@H](Cc1ccccc1)NC(=O)[C@H](CO)NC(=O)[C@H](CC(N)=O)NC(=O)[C@@H](Cc1c[nH]c2ccccc12)NC(=O)[C@H](CC(N)=O)NC(=O)[C@@H](N)Cc1ccc(O)cc1)C(=O)N[C@@H](CCCNC(=N)N)C(=O)N[C@@H](Cc1ccccc1)C(N)=O` [Compound No. 40], for which the “Specific Act. (EC50/MS10 EC50)” value at hOT7T175 [1] came out at 1.6. At hOT7T175 [2], the “Specific Act. (intracellular Ca ion level-increasing activity, specific activity to Metastin (1-54))” value stood at 30. With `CC(C)C[C@H](NC(=O)CNC(=O)[C@H](Cc1ccccc1)NC(=O)[C@H](CO)NC(=O)[C@H](CC(N)=O)NC(=O)[C@H](Cc1c[nH]c2ccccc12)NC(=O)[C@@H](CC(N)=O)NC(=O)[C@@H](N)Cc1ccc(O)cc1)C(=O)N[C@@H](CCCNC(=N)N)C(=O)N[C@@H](Cc1ccccc1)C(N)=O` [Compound No. 41], on hOT7T175 [1], the “Specific Act. (EC50/MS10 EC50)” value is recorded as 2.7. For the same compound, the “Specific Act. (intracellular Ca ion level-increasing activity, specific activity to Metastin (1-54))” value at hOT7T175 [2] came out at 10. The like results for `CC(C)C[C@H](NC(=O)CNC(=O)[C@H](Cc1ccccc1)NC(=O)[C@H](CO)NC(=O)[C@H](CC(N)=O)NC(=O)[C@H](Cc1c[nH]c2ccccc12)NC(=O)[C@H](CC(N)=O)NC(=O)[C@H](N)Cc1ccc(O)cc1)C(=O)N[C@@H](CCCNC(=N)N)C(=O)N[C@@H](Cc1ccccc1)C(N)=O` [Compound No. 42] were, in that order, 1.6 and 30. The like results for `CC(C)C[C@H](NC(=O)CNC(=O)[C@H](Cc1ccccc1)NC(=O)[C@H](CO)NC(=O)[C@H](CC(N)=O)NC(=O)[C@H](Cc1c[nH]c2ccccc12)NC(=O)[C@H](CC(N)=O)NC(=O)[C@@H](N)Cc1ccc(O)cc1)C(=O)N[C@@H](CCCCNC(=N)N)C(=O)N[C@@H](Cc1ccccc1)C(N)=O` [Compound No. 97] were, in that order, 2.9 and 10.

Turning to `CC(C)C[C@H](NC(=O)CNC(=O)[C@H](Cc1ccccc1)NC(=O)[C@H](CO)NC(=O)[C@H](CC(N)=O)NC(=O)CCc1c[nH]c2ccccc12)C(=O)N[C@@H](CCCNC(=N)N)C(=O)N[C@@H](Cc1ccccc1)C(N)=O` [Compound No. 114, 3-(3-Indolyl)propionyl-Asn-Ser-Phe-Gly-Leu-Arg-Phe-NH2] ({Propanoyl(3-indol-3-yl)}-NSFGLRF-NH2), on hOT7T175 [1], the “Specific Act. (EC50/MS10 EC50)” value turned out to be 4.1. In addition, the “Specific Act. (intracellular Ca ion level-increasing activity, specific activity to Metastin (1-54))” value on hOT7T175 [2] came out at 3. On the same counts, the results for `CC(C)C[C@H](NC(=O)CNC(=O)[C@H](Cc1ccccc1)NC(=O)[C@H](CO)NC(=O)[C@H](CC(N)=O)NC(=O)[C@H](Cc1c[nH]c2ccccc12)NC(=O)[C@H](CC(N)=O)NC(=O)[C@@H](N)Cc1ccc(O)cc1)C(=O)N[C@@H](CCCNC(=N)N)C(=O)N[C@@H](Cc1ccccc1)C(N)=S` [Compound No. 128] (H-YNWNSFGLR-X4) are 0.5 and 10. For the compound `CC(C)C[C@H](NC(=O)CNC(=O)[C@H](Cc1ccccc1)NC(=O)[C@H](CO)NC(=O)[C@H](CC(N)=O)NC(=O)[C@H](Cc1c[nH]c2ccccc12)NC(=O)[C@H](CC(N)=O)NC(=O)[C@H](N)Cc1ccc(O)cc1)C(=O)N[C@@H](CCCNC(=N)N)C(=O)N[C@@H](Cc1ccccc1)C(N)=S` [Compound No. 146] (H-[dY]NWNSFGLR-X4), the “Specific Act. (EC50/MS10 EC50)” value at hOT7T175 [1] is given as 1.5. For the same compound, the “Specific Act. (intracellular Ca ion level-increasing activity, specific activity to Metastin (1-54))” value on hOT7T175 [2] is 10. Regarding `CC(C)C[C@H](NC(=O)CNC(=O)[C@H](Cc1ccc2ccccc2c1)NC(=O)[C@H](CO)NC(=O)[C@H](CC(N)=O)NC(=O)[C@H](Cc1c[nH]c2ccccc12)NC(=O)[C@H](CC(N)=O)NC(=O)[C@@H](N)Cc1ccc(O)cc1)C(=O)N[C@@H](CCCNC(=N)N)C(=O)N[C@@H](Cc1ccccc1)C(N)=O` [Compound No. 152, Tyr-Asn-Trp-Asn-Ser-Nal(2)-Gly-Leu-Arg-Phe-NH2] (H-YNWNS[2Nal]GLRF-NH2), at hOT7T175 [1], the “Specific Act. (EC50/MS10 EC50)” value amounted to 1.4. In addition, the “Specific Act. (intracellular Ca ion level-increasing activity, specific activity to Metastin (1-54))” value on hOT7T175 [2] came out at 5.

On to `CC(C)C[C@H](NC(=O)CNC(=O)[C@H](CC1CCCCC1)NC(=O)[C@H](CO)NC(=O)[C@H](CC(N)=O)NC(=O)[C@H](Cc1c[nH]c2ccccc12)NC(=O)[C@H](CC(N)=O)NC(=O)[C@@H](N)Cc1ccc(O)cc1)C(=O)N[C@@H](CCCNC(=N)N)C(=O)N[C@@H](Cc1ccccc1)C(N)=O` [Compound No. 156, Tyr-Asn-Trp-Asn-Ser-Cha-Gly-Leu-Arg-Phe-NH2] (H-YNWNS[Cha]GLRF-NH2), for which, at hOT7T175 [1], the “Specific Act. (EC50/MS10 EC50)” value is given as 0.9. Also, the “Specific Act. (intracellular Ca ion level-increasing activity, specific activity to Metastin (1-54))” value on hOT7T175 [2] amounted to 2. For the compound `CNC(=N)NCCC[C@H](NC(=O)[C@H](CC(C)C)NC(=O)CNC(=O)[C@H](Cc1ccccc1)NC(=O)[C@H](CO)NC(=O)[C@H](CC(N)=O)NC(=O)[C@H](Cc1c[nH]c2ccccc12)NC(=O)[C@H](CC(N)=O)NC(=O)[C@H](N)Cc1ccc(O)cc1)C(=O)N[C@@H](Cc1c[nH]c2ccccc12)C(N)=O` [Compound No. 174] (H-[dY]NWNSFGL[Arg(Me)]W-NH2), the “Specific Act. (EC50/MS10 EC50)” value on hOT7T175 [1] is given as 2.3. In addition, the “Specific Act. (intracellular Ca ion level-increasing activity, specific activity to Metastin (1-54))” value at hOT7T175 [2] amounted to 10. Consider `CC[C@H](NC(=O)CNC(=O)[C@H](Cc1ccccc1)NC(=O)[C@H](CO)NC(=O)[C@H](CC(N)=O)NC(=O)[C@H](Cc1c[nH]c2ccccc12)NC(=O)[C@H](CC(N)=O)NC(=O)[C@@H](N)Cc1ccc(O)cc1)C(=O)N[C@@H](CCCNC(=N)N)C(=O)N[C@@H](Cc1ccccc1)C(N)=O` [Compound No. 187, Tyr-Asn-Trp-Asn-Ser-Phe-Gly-Abu-Arg-Phe-NH2] (H-YNWNSFG[Abu]RF-NH2), for which, at hOT7T175 [1], the “Specific Act. (EC50/MS10 EC50)” value is given as 1.9. On hOT7T175 [2], the “Specific Act. (intracellular Ca ion level-increasing activity, specific activity to Metastin (1-54))” value is recorded as 1. On the same counts, the results for `CC[C@H](C)[C@H](NC(=O)[C@H](CC(N)=O)NC(=O)[C@H](N)Cc1ccc(O)cc1)C(=O)N[C@@H](CC(N)=O)C(=O)N[C@@H](CO)C(=O)N[C@@H](Cc1ccccc1)C(=O)NCC(=O)N[C@@H](CC(C)C)C(=O)N[C@@H](CCCNC(=N)NC)C(=O)N[C@@H](Cc1ccccc1)C(N)=O` [Compound No. 206] (H-[dY]NINSFGL[Arg(Me)]F-NH2) are 4.8 and 10. Consider `CNC(=N)NCCC[C@H](NC(=O)[C@H](CC(C)C)NC(=O)CNC(=O)[C@H](Cc1ccccc1)NC(=O)[C@H](CO)NC(=O)[C@@H](NC(=O)[C@H](Cc1c[nH]c2ccccc12)NC(=O)[C@H](CC(N)=O)NC(=O)[C@H](N)Cc1ccc(O)cc1)[C@@H](C)O)C(=O)N[C@@H](Cc1ccccc1)C(N)=O` [Compound No. 208] (H-[dY]NWTSFGL[Arg(Me)]F-NH2), for which the “Specific Act. (EC50/MS10 EC50)” value on hOT7T175 [1] was found to be 7.3. Also, the “Specific Act. (intracellular Ca ion level-increasing activity, specific activity to Metastin (1-54))” value on hOT7T175 [2] is reported as 1. On to `CNC(=N)NCCC[C@H](NC(=O)[C@H](CC(C)C)NC(=O)CNC(=O)[C@H](Cc1ccccc1)NC(=O)[C@H](CO)NC(=O)[C@H](C)NC(=O)[C@H](Cc1c[nH]c2ccccc12)NC(=O)[C@H](CC(N)=O)NC(=O)[C@H](N)Cc1ccc(O)cc1)C(=O)N[C@@H](Cc1ccccc1)C(N)=O` [Compound No. 210] (H-[dY]NWASFGL[Arg(Me)]F-NH2), for which the “Specific Act. (EC50/MS10 EC50)” value on hOT7T175 [1] was found to be 9.3. Further, at hOT7T175 [2], the “Specific Act. (intracellular Ca ion level-increasing activity, specific activity to Metastin (1-54))” value stood at 1. Take `CNC(=N)NCCC[C@H](NC(=O)[C@H](CC(C)C)NC(=O)CNC(=O)[C@H](Cc1ccccc1)NC(=O)[C@@H](NC(=O)[C@H](CC(N)=O)NC(=O)[C@H](Cc1c[nH]c2ccccc12)NC(=O)[C@H](CC(N)=O)NC(=O)[C@H](N)Cc1ccc(O)cc1)[C@@H](C)O)C(=O)N[C@@H](Cc1ccccc1)C(N)=O` [Compound No. 211] (H-[dY]NWNTFGL[Arg(Me)]F-NH2): the “Specific Act. (EC50/MS10 EC50)” value on hOT7T175 [1] stood at 1.3. In addition, the “Specific Act. (intracellular Ca ion level-increasing activity, specific activity to Metastin (1-54))” value on hOT7T175 [2] came to 10. As to `CNC(=N)NCCC[C@H](NC(=O)[C@H](CC(C)C)NC(=O)CNC(=O)[C@H](Cc1ccccc1)NC(=O)[C@H](C)NC(=O)[C@H](CC(N)=O)NC(=O)[C@H](Cc1c[nH]c2ccccc12)NC(=O)[C@H](CC(N)=O)NC(=O)[C@H](N)Cc1ccc(O)cc1)C(=O)N[C@@H](Cc1ccccc1)C(N)=O` [Compound No. 212] (H-[dY]NWNAFGL[Arg(Me)]F-NH2), the “Specific Act. (EC50/MS10 EC50)” value on hOT7T175 [1] is recorded as 1.1. For the same compound, the “Specific Act. (intracellular Ca ion level-increasing activity, specific activity to Metastin (1-54))” value at hOT7T175 [2] came out at 10. In the case of `CNC(=N)NCCC[C@H](NC(=O)[C@H](CC(C)C)NC(=O)NNC(=O)[C@H](Cc1ccccc1)NC(=O)[C@H](CO)NC(=O)[C@H](CC(N)=O)NC(=O)[C@H](Cc1ccc2ccccc2c1)NC(=O)[C@H](N)Cc1ccc(O)cc1)C(=O)N[C@@H](Cc1ccccc1)C(N)=O` [Compound No. 255, D-Tyr-Nal(2)-Asn-Ser-Phe-AzaGly-Leu-Arg(Me)-Phe-NH2] (H-[dY][2Nal]NSF[azaGly]L[Arg(Me)]F-NH2), the “Specific Act. (intracellular Ca ion level-increasing activity, specific activity to Metastin (1-54))” value at hOT7T175 [2] is 1. Regarding “D-Tyr-Asn-Trp-Gln-Ser-Phe-Gly-Leu-Arg(Me)-Phe-NH2 ([dY]NWQSFGL[Arg(Me)]F-NH2) [Compound No. 209]”, the “Specific Act. (intracellular Ca ion level-increasing activity, specific activity to Metastin (1-54))” value with hOT7T175 [2] was “½”. “D-Tyr-Asn-Trp-Ser-Ser-Phe-Gly-Leu-Arg(Me)-Phe-NH2 ([dY]NWSSFGL[Arg(Me)]F-NH2) [Compound No. 207]”: the “Specific Act. (intracellular Ca ion level-increasing activity, specific activity to Metastin (1-54))” value with hOT7T175 [2] is “½”. Consider H-DNWNSFGLRF-NH2 [Compound No. 75], for which the “Specific Act. (intracellular Ca ion level-increasing activity, specific activity to Metastin (1-54))” value on hOT7T175 [2] stood at 1. As to H-YNWNLFGLRF-NH2 [Compound No. 24], on hOT7T175 [2], the “Specific Act. (intracellular Ca ion level-increasing activity, specific activity to Metastin (1-54))” value is reported as 1. H-YNWNSFALRF-NH2 [Compound No. 50]: the “Specific Act. (intracellular Ca ion level-increasing activity, specific activity to Metastin (1-54))” value on hOT7T175 [2] amounted to 30. For the compound H-YNWNSFSLRF-NH2 [Compound No. 101], the “Specific Act. (intracellular Ca ion level-increasing activity, specific activity to Metastin (1-54))” value at hOT7T175 [2] is recorded as 10.
